Results as given in the supplement of paper PMC11208160.

Test: recombinant barcode read abundance after kanamycin selection (control-corrected) (log10(CPM+1)); higher = more efficient recombination; sequences stand for … in AGTGCAGAGAAAATCGGCCAGTTTTCTCTGCCTGCAGTCCGCATGCCGT…AGATTTATGCAGCGGACTGCCTTTCTCCCAAAGTGATAAACCGGACAGTATCATGGACCGGTTTTCCCGGTAATCCGTATTTGCAAGGTTGGTTTCACT; site = the 11-nt target
Method in brief: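 In a pooled screen in E. coli, targets were paired with target-binding loops of the IS621 bridge RNA. Each oligo carried a promoter, a target, a barcode and the first 104 bridge RNA bases driven by J23119, and was Gibson-cloned into a vector holding the remaining 73 bp and a T7-inducible recombinase before co-electroporation with a donor plasmid. Duplicate platings went onto chloramphenicol/ampicillin LB agar as the control or onto chloramphenicol/ampicillin/kanamycin with 0.1 mM IPTG. Recombination efficiency is the averaged, control-corrected count per million of barcodes at recombinant junctions, given as log10(CPM+1).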
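Also: IS621 recombinase and bridge RNA in Escherichia coli cells.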

Sequence	recombinant barcode read abundance (log10)
GAAGGGCCTTGGGTTCTAACCTGTTGCCT (site GAAGTGCCTAG)	0.0531
GAAGTACCTTGGGTTCTAACCTGTTGCCT (site AAAGTACCTAG)	0.881
GAAGTACCTTGGGTTCTAACCTGTTGCCT (site CAAGTACCTAG)	0.275
GAAGTACCTTGGGTTCTAACCTGTTGCCT (site GAAGTACCTAG)	1.92
GAAGTACCTTGGGTTCTAACCTGTTGCCT (site TAAGTACCTAG)	0.873
GAAGTCACTTGGGTTCTAACCTGTTGCCT (site GAAGTCACTAG)	1.99
GAAGTCACTTGGGTTCTAACCTGTTGCCT (site TAAGTCACTAG)	1.6
GAAGTCTCTTGGGTTCTAACCTGTTGCCT (site GAAGTCTCTAG)	2.59
GAAGTCTCTTGGGTTCTAACCTGTTGCCT (site GTAGTCCCTAG)	0.0661
GAATCGACTTGGGTTCTAACCTGTTGCCT (site AGGGTACCTCT)	0.192
GAATCGACTTGGGTTCTAACCTGTTGCCT (site GAATCGACTAG)	0.421
GAATCTTCTTGGGTTCTAACCTGTTGCTT (site CAATCGTCTAA)	0.0978
GAATCTTCTTGGGTTCTAACCTGTTGCTT (site GAATCTTCTAA)	0.0983
GACAAACCTTGGGTTCTAACCTGTTGCGG (site GACAAACCTCC)	1.64
GACAAACCTTGGGTTCTAACCTGTTGCGG (site GACACAACTCC)	0.0381
GACACAACTTGGGTTCTAACCTGTTGCGG (site GACAAACCTCC)	0.0119
GACACAACTTGGGTTCTAACCTGTTGCGG (site GACACAACTCC)	1.14
GACACACCTTGGGTTCTAACCTGTTGCAT (site GACACACCTAT)	1.02
GACACACCTTGGGTTCTAACCTGTTGCAT (site GTCACGCCTAT)	0.0207
GACACCTCTTGGGTTCTAACCTGTTGCCG (site GACACCTCTCG)	1.12
GACACCTCTTGGGTTCTAACCTGTTGCCG (site TCTGAAACTAA)	0.157
GACACCTCTTGGGTTCTAACCTGTTGCTT (site GACACCTCTAA)	1.03

Sequence	recombinant barcode read abundance (log10)
GACACCTCTTGGGTTCTAACCTGTTGCTT (site GACACGTCTAG)	0.461
GACACGCCTTGGGTTCTAACCTGTTGCTT (site GACACGCCTAA)	0.201
GACACGCCTTGGGTTCTAACCTGTTGCTT (site GACACGCCTAC)	0.0239
GACACGCCTTGGGTTCTAACCTGTTGCTT (site GACACGCCTAG)	0.0922
GACACGCCTTGGGTTCTAACCTGTTGCTT (site GACACGCCTAT)	0.0718
GACACTGCTTGGGTTCTAACCTGTTGCCT (site GAAACTGCTAG)	0.274
GACACTGCTTGGGTTCTAACCTGTTGCCT (site GACACTGCTAG)	0.403
GACACTGCTTGGGTTCTAACCTGTTGCCT (site GAGACTGCTAG)	0.044
GACACTGCTTGGGTTCTAACCTGTTGCCT (site GATACTGCTAG)	0.233
GACAGGCCTTGGGTTCTAACCTGTTGCGT (site CTGCTAGCTCT)	0.278
GACAGGCCTTGGGTTCTAACCTGTTGCGT (site GACAGGCCTAC)	1.31
GACATACCTTGGGTTCTAACCTGTTGCCT (site GACATACCTAG)	0.794
GACATACCTTGGGTTCTAACCTGTTGCCT (site GACCTACCTAG)	0.273
GACATACCTTGGGTTCTAACCTGTTGCCT (site GACGTACCTAG)	0.412
GACATACCTTGGGTTCTAACCTGTTGCCT (site GACTTACCTAG)	0.251
GACATCGCTTGGGTTCTAACCTGTTGCCT (site GACATCACTAG)	0.0851
GACATCGCTTGGGTTCTAACCTGTTGCCT (site GACATCCCTAG)	0.0326
GACATCGCTTGGGTTCTAACCTGTTGCCT (site GACATCGCTAG)	1.64
GACATCGCTTGGGTTCTAACCTGTTGCCT (site GACATCTCTAG)	0.641
GACCACTCTTGGGTTCTAACCTGTTGCCT (site AACCACTCTAG)	1.4
GACCACTCTTGGGTTCTAACCTGTTGCCT (site CACCACTCTAG)	1.2
GACCACTCTTGGGTTCTAACCTGTTGCCT (site GACCACTCTAG)	2.39

Sequence	recombinant barcode read abundance (log10)
GACCACTCTTGGGTTCTAACCTGTTGCCT (site TACCACTCTAG)	1.42
GACCAGCCTTGGGTTCTAACCTGTTGCAT (site GACCAGCCTAA)	0.106
GACCAGCCTTGGGTTCTAACCTGTTGCAT (site GACCAGCCTAC)	0.74
GACCAGCCTTGGGTTCTAACCTGTTGCAT (site GACCAGCCTAG)	0.466
GACCAGCCTTGGGTTCTAACCTGTTGCAT (site GACCAGCCTAT)	1.82
GACCAGCCTTGGGTTCTAACCTGTTGCGT (site GACCAGCCTAA)	0.104
GACCAGCCTTGGGTTCTAACCTGTTGCGT (site GACCAGCCTAC)	2.4
GACCAGCCTTGGGTTCTAACCTGTTGCGT (site GACCAGCCTAG)	0.266
GACCAGCCTTGGGTTCTAACCTGTTGCGT (site GACCAGCCTAT)	1.32
GACCAGCCTTGGGTTCTAACCTGTTGCTT (site GACCAGCCTAA)	1.59
GACCAGCCTTGGGTTCTAACCTGTTGCTT (site GACCAGCCTAC)	0.994
GACCAGCCTTGGGTTCTAACCTGTTGCTT (site GACCAGCCTAG)	1.29
GACCAGCCTTGGGTTCTAACCTGTTGCTT (site GACCAGCCTAT)	0.746
GACCCACCTTGGGTTCTAACCTGTTGCCT (site AACCCACCTAG)	1.64
GACCCACCTTGGGTTCTAACCTGTTGCCT (site CACCCACCTAG)	0.814
GACCCACCTTGGGTTCTAACCTGTTGCCT (site GACCCACCTAG)	1.76
GACCCACCTTGGGTTCTAACCTGTTGCCT (site TACCCACCTAG)	1.4
GACCCATCTTGGGTTCTAACCTGTTGCCT (site GACACAACTAG)	0.0316
GACCCATCTTGGGTTCTAACCTGTTGCCT (site GACCCATCTAG)	0.683
GACCGCGCTTGGGTTCTAACCTGTTGCCT (site GACCGAGCTAG)	0.672
GACCGCGCTTGGGTTCTAACCTGTTGCCT (site GACCGCGCTAG)	1.05
GACCGCGCTTGGGTTCTAACCTGTTGCCT (site GACCGGGCTAG)	0.0432

Sequence	recombinant barcode read abundance (log10)
GACCGCGCTTGGGTTCTAACCTGTTGCCT (site GACCGTGCTAG)	0.0542
GACCGGACTTGGGTTCTAACCTGTTGCGT (site GACCGGACTAC)	2.44
GACCGGACTTGGGTTCTAACCTGTTGCGT (site GAGTGGACTAC)	0.0356
GACGAAGCTTGGGTTCTAACCTGTTGCCT (site GACGAAGCTAG)	0.348
GACGAAGCTTGGGTTCTAACCTGTTGCCT (site TCCGAAGCTAG)	0.0613
GACGATCCTTGGGTTCTAACCTGTTGCAT (site GACGATCCTAT)	0.547
GACGATCCTTGGGTTCTAACCTGTTGCAT (site GGCGAACCTAT)	0.077
GACGATCCTTGGGTTCTAACCTGTTGCCT (site GACGATCCTAG)	0.66
GACGATCCTTGGGTTCTAACCTGTTGCCT (site GCCGATCCTAG)	0.0719
GACGATCCTTGGGTTCTAACCTGTTGCCT (site GGCGATCCTAG)	0.255
GACGATCCTTGGGTTCTAACCTGTTGCCT (site GTCGATCCTAG)	0.0852
GACGCGGCTTGGGTTCTAACCTGTTGCCT (site GACGCGGCTAG)	0.184
GACGCGGCTTGGGTTCTAACCTGTTGCCT (site TTGCGAACTCT)	0.059
GACGGTCCTTGGGTTCTAACCTGTTGCGG (site GACGGTCCTCC)	2.15
GACGGTCCTTGGGTTCTAACCTGTTGCGG (site GATGGTCCTCC)	0.418
GACGTGTCTTGGGTTCTAACCTGTTGCCG (site GACGTGTCTCG)	0.408
GACGTGTCTTGGGTTCTAACCTGTTGCCG (site GGCGTGTCTCC)	0.0409
GACGTGTCTTGGGTTCTAACCTGTTGCGT (site AGTCATACTTG)	0
GACGTGTCTTGGGTTCTAACCTGTTGCGT (site GACGTGTCTAC)	2.47
GACTCATCTTGGGTTCTAACCTGTTGCGG (site GACTCATCTCC)	0.151
